Results taken from PubChem BioAssay AID328 (DTP/NCI, 2004).
Values joined by “and” are separate entries in the source; they are usually repeats but may differ in a detail not shown here. Equal entries are not always repeated. Inconclusive results and toxic doses are left out. Rule for the calls: active = survival T/C of 150% or more; inactive = T/C below 125% in these data. Residues, ends and D or L forms follow the SMILES beside them.

System: BDF1 mice, P388 leukemia ip, median survival T/C
Assay: NCI In Vivo Anticancer Drug Screen. Data for tumor model P388 Leukemia (intraperitoneal) in B6D2F1 (BDF1) mice
Conditions: endpoint: median survival time, higher = longer survival
Outline: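 In tumour-bearing mice, survival after compound treatment is set against the vehicle group and given as a quotient.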

[1] = dose: 100.0 mg/kg/injection, schedule: Q01DX009 (ip), vehicle: saline with Tween-80
[2] = dose: 100.0 mg/kg/injection, schedule: Q04DX003 (ip), vehicle: saline with Tween-80
[3] = dose: 200.0 mg/kg/injection, schedule: Q04DX003 (ip), vehicle: saline with Tween-80
[4] = dose: 400.0 mg/kg/injection, schedule: Q04DX003 (ip), vehicle: saline with Tween-80
[5] = dose: 50.0 mg/kg/injection, schedule: Q01DX009 (ip), vehicle: saline with Tween-80
[6] = dose: 200.0 mg/kg/injection, schedule: Q01DX009 (ip), vehicle: saline with Tween-80
[7] = dose: 200.0 mg/kg/injection, schedule: Q01DX009 (ip), vehicle: Klucel (hydroxypropylcellulose) (HPC)
[8] = dose: 100.0 mg/kg/injection, schedule: Q04DX003 (ip), vehicle: Klucel (hydroxypropylcellulose) (HPC)
[9] = dose: 200.0 mg/kg/injection, schedule: Q04DX003 (ip), vehicle: Klucel (hydroxypropylcellulose) (HPC)
[10] = dose: 400.0 mg/kg/injection, schedule: Q04DX003 (ip), vehicle: Klucel (hydroxypropylcellulose) (HPC)
[11] = dose: 12.5 mg/kg/injection, schedule: Q01DX009 (ip), vehicle: saline
[12] = dose: 50.0 mg/kg/injection, schedule: Q01DX009 (ip), vehicle: saline

Measured: T/C

COc1cc(C2c3cc4c(cc3C(O)C(CO)C2CO)OCO4)cc(OC)c1OC (stereo not drawn)
inactive: dose: 37.5 mg/kg/injection, schedule: Q04DX003 (ip), vehicle: saline sonified 109 % of control | dose: 44.0 mg/kg/injection, schedule: Q04DX003 (ip), vehicle: saline sonified 100 % of control | dose: 66.0 mg/kg/injection, schedule: Q04DX003 (ip), vehicle: saline sonified 105 % of control | dose: 75.0 mg/kg/injection, schedule: Q04DX003 (ip), vehicle: saline sonified 122 % of control | dose: 100.0 mg/kg/injection, schedule: Q04DX003 (ip), vehicle: saline sonified 110 % of control | dose: 150.0 mg/kg/injection, schedule: Q04DX003 (ip), vehicle: saline sonified 110 % of control
active: dose: 17.5 mg/kg/injection, schedule: Q01DX009 (ip), vehicle: Klucel (hydroxypropylcellulose) (HPC) 176 % of control | dose: 35.0 mg/kg/injection, schedule: Q01DX009 (ip), vehicle: Klucel (hydroxypropylcellulose) (HPC) 209 % of control | dose: 44.0 mg/kg/injection, schedule: Q01DX009 (ip), vehicle: saline with Tween-80 150 % of control | dose: 66.0 mg/kg/injection, schedule: Q01DX009 (ip), vehicle: saline with Tween-80 150 % of control | dose: 70.0 mg/kg/injection, schedule: Q01DX009 (ip), vehicle: Klucel (hydroxypropylcellulose) (HPC) 228 % of control and 159 % of control | [1] 209 % of control | [2] 160 % of control and 183 % of control | dose: 140.0 mg/kg/injection, schedule: Q01DX009 (ip), vehicle: Klucel (hydroxypropylcellulose) (HPC) 172 % of control | dose: 150.0 mg/kg/injection, schedule: Q01DX009 (ip), vehicle: saline with Tween-80 159 % of control | dose: 150.0 mg/kg/injection, schedule: Q04DX003 (ip), vehicle: saline with Tween-80 160 % of control | [3] 172 % of control and 191 % of control | dose: 225.0 mg/kg/injection, schedule: Q04DX003 (ip), vehicle: saline with Tween-80 190 % of control | dose: 300.0 mg/kg/injection, schedule: Q04DX003 (ip), vehicle: saline sonified 200 % of control | [4] 200 % of control and 204 % of control

Cc1cc(C)c2nc3c(c(C(O)C4CCCCN4)c2c1)CC/C3=C\c1ccc(Cl)cc1 (stereo not drawn)
inactive: [5] 114 % of control | [1] 100 % of control | [6] 116 % of control

NC(=S)c1cn(C2OC(CO)C(O)C2O)c2ncnc(N)c12 (stereo not drawn)
inactive: dose: 5.0 mg/kg/injection, schedule: Q01DX009 (ip), vehicle: saline with Tween-80 100 % of control
active: dose: 3.3 mg/kg/injection, schedule: Q01DX009 (ip), vehicle: saline with Tween-80 166 % of control

CN(C)CCNc1ccc(O)c2sc3ccccc3c(=O)c12
inactive: dose: 25.0 mg/kg/injection, schedule: Q04DX003 (ip), vehicle: saline with Tween-80 96 % of control | dose: 50.0 mg/kg/injection, schedule: Q04DX003 (ip), vehicle: saline with Tween-80 109 % of control | [2] 97 % of control

CN1CCc2ccccc2C1Cc1ccccc1NC(=O)c1sc2ccccc2c1Cl (stereo not drawn)
inactive: dose: 50.0 mg/kg/injection, schedule: Q01DX009 (ip), vehicle: Klucel (hydroxypropylcellulose) (HPC) 86 % of control | dose: 100.0 mg/kg/injection, schedule: Q01DX009 (ip), vehicle: Klucel (hydroxypropylcellulose) (HPC) 91 % of control | [7] 89 % of control

CCNC(C)(C)C(SSS)c1cccs1 (stereo not drawn)
inactive: [1] 112 % of control | [2] 100 % of control | [6] 120 % of control | [3] 122 % of control | [4] 118 % of control

CCN(CC)c1cc(Cl)c(C=O)cc1Br
inactive: [8] 104 % of control | [7] 100 % of control | [9] 95 % of control | dose: 400.0 mg/kg/injection, schedule: Q01DX009 (ip), vehicle: Klucel (hydroxypropylcellulose) (HPC) 95 % of control | [10] 100 % of control

O=C(C(=O)c1ccc(Cl)cc1)c1ccc(Cl)cc1
inactive: dose: 12.5 mg/kg/injection, schedule: Q04DX003 (ip), vehicle: other 100 % of control | dose: 25.0 mg/kg/injection, schedule: Q04DX003 (ip), vehicle: other 86 % of control

Cc1ccc(S(=O)(=O)NN=C(c2ccccc2)c2ccccc2)cc1
inactive: dose: 12.5 mg/kg/injection, schedule: Q04DX003 (ip), vehicle: Klucel (hydroxypropylcellulose) (HPC) 98 % of control | dose: 25.0 mg/kg/injection, schedule: Q04DX003 (ip), vehicle: Klucel (hydroxypropylcellulose) (HPC) 103 % of control | dose: 50.0 mg/kg/injection, schedule: Q04DX003 (ip), vehicle: Klucel (hydroxypropylcellulose) (HPC) 103 % of control | [8] 97 % of control | [9] 97 % of control

NC(=O)C(Cc1ccc(O)cc1)NC(=O)C(N)Cc1c[nH]c2ccccc12 (stereo not drawn) (H-Trp-Tyr-NH2; configuration not given here)
inactive: dose: 50.0 mg/kg/injection, schedule: Q01DX005 (ip), vehicle: saline 92 % of control | dose: 100.0 mg/kg/injection, schedule: Q01DX005 (ip), vehicle: saline 92 % of control | dose: 200.0 mg/kg/injection, schedule: Q01DX005 (ip), vehicle: saline 87 % of control

O=c1oc2ccc(Cl)cc2n1Cc1ccc(Cl)cc1
inactive: dose: 50.0 mg/kg/injection, schedule: Q01DX005 (ip), vehicle: saline with Tween-80 99 % of control | dose: 100.0 mg/kg/injection, schedule: Q01DX005 (ip), vehicle: saline with Tween-80 92 % of control | dose: 200.0 mg/kg/injection, schedule: Q01DX005 (ip), vehicle: saline with Tween-80 92 % of control

CCCCNC(C)(C)CCl
inactive: dose: 1.56 mg/kg/injection, schedule: Q01DX009 (ip), vehicle: water 95 % of control | dose: 3.12 mg/kg/injection, schedule: Q01DX009 (ip), vehicle: water 102 % of control | dose: 3.12 mg/kg/injection, schedule: Q04DX003 (ip), vehicle: water 106 % of control | dose: 6.25 mg/kg/injection, schedule: Q04DX003 (ip), vehicle: water 88 % of control | dose: 12.5 mg/kg/injection, schedule: Q01DX009 (ip), vehicle: water 95 % of control | dose: 12.5 mg/kg/injection, schedule: Q04DX003 (ip), vehicle: water 106 % of control | dose: 25.0 mg/kg/injection, schedule: Q01DX009 (ip), vehicle: water 111 % of control | dose: 25.0 mg/kg/injection, schedule: Q04DX003 (ip), vehicle: water 100 % of control and 106 % of control | dose: 50.0 mg/kg/injection, schedule: Q01DX009 (ip), vehicle: water 104 % of control

C=CCc1ccccc1CNC(C)(C)CO
inactive: [5] 103 % of control | [1] 103 % of control

CCOC(=O)C1(C)C(=O)CC2c3nc4ccccc4cc3CN2C1=O (stereo not drawn)
inactive: [8] 100 % of control | [9] 100 % of control | [10] 100 % of control

CCCCCCCCCCCCCC[N+]1([O-])CCCC1
inactive: [11] 108 % of control | dose: 25.0 mg/kg/injection, schedule: Q01DX009 (ip), vehicle: saline 100 % of control | [12] 95 % of control

Cc1c2c(ccc3ccccc32)c[n+]2ccccc12
inactive: dose: 6.25 mg/kg/injection, schedule: Q01DX009 (ip), vehicle: saline 105 % of control | [11] 122 % of control | dose: 12.5 mg/kg/injection, schedule: Q04DX003 (ip), vehicle: saline 118 % of control | dose: 25.0 mg/kg/injection, schedule: Q04DX003 (ip), vehicle: saline 122 % of control

Nc1ncnc2c1ncn2C1CCCO1 (stereo not drawn)
inactive: [5] 100 % of control | [1] 109 % of control | dose: 100.0 mg/kg/injection, schedule: Q04DX003 (ip), vehicle: saline 100 % of control | [6] 109 % of control | dose: 200.0 mg/kg/injection, schedule: Q04DX003 (ip), vehicle: saline 95 % of control

CC[N+](CC)(CC)CC[N+](CC)(CC)CC
inactive: [12] 95 % of control | dose: 100.0 mg/kg/injection, schedule: Q01DX009 (ip), vehicle: saline 96 % of control and 88 % of control | dose: 200.0 mg/kg/injection, schedule: Q01DX009 (ip), vehicle: saline 95 % of control and 91 % of control

OC1c2ccccc2-c2ccccc2C1O (stereo not drawn)
active: dose: 200.0 mg/kg/injection, schedule: Q04DX002 (ip), vehicle: saline with Tween-80 153 % of control | dose: 400.0 mg/kg/injection, schedule: Q04DX002 (ip), vehicle: saline with Tween-80 155 % of control

C(COCCOCC1CO1)OCCOCC1CO1 (stereo not drawn)
active: dose: 200.0 mg/kg/injection, schedule: Q01DX010 (ip), vehicle: saline 150 % of control | dose: 400.0 mg/kg/injection, schedule: Q01DX010 (ip), vehicle: saline 154 % of control and 172 % of control
inactive: dose: 50.0 mg/kg/injection, schedule: Q01DX010 (ip), vehicle: saline 109 % of control
